Article PMC3545186 (Biochemical Pharmacology, 2013)
Values joined by “and” are separate entries in the source; they are usually repeats but may differ in a detail not shown here. Identical values can stand only once. Numbered stars: 1 amine (or outer) side, 2 acyl side, 3 side chain; on linkers, the order of the positions; unused ones are H or OH. Bridge positions count the residues as written; N and C are the ends. Square brackets hold non-standard residues; d marks the D form. Peptide text beside a SMILES is read from it. I, II: the chains in the order shown. Actinocin(9to1) = Cc1c2oc3c(C)ccc(C(=O)[*:1])c3nc-2c(C(=O)[*:2])c(N)c1=O; NMeV = CN[C@H](C(=O)O)C(C)C; Sar = CNCC(=O)O

Tests used:
MDCKII-WT cells [1] = assay: Fluorescence competition assay with ABCB1 substrate doxorubicin; assay type: cell-based, canine; details: 1 h pre-incubation, doxorubicin 10 μM 1 h
MDCKII-ABCB1 cells [2] = assay: as above; assay type: cell-based, canine; details: MDCKII-ABCB1, 1 h pre-incubation, doxorubicin 10 μM 1 h
[3] = Act D treatment; cited from earlier work
MDCKII-ABCC1 cells [4] = assay: Growth inhibition; assay type: cell-based, canine; details: MDCKII-ABCC1, MK571 25 μM
MDCKII-ABCC2 cells [5] = assay: Intracellular accumulation of Act D; assay type: in vitro ADME, canine
MDCKII-ABCC1 cells [6] = assay: Intracellular accumulation of Act D; assay type: in vitro ADME, canine
MDCKII-ABCG2 cells [7] = assay: Cellular efflux of Act D after 4 h uptake; assay type: in vitro ADME, canine; details: MDCKII-ABCG2, not statistically significant
MDCKII-ABCB1 cells [8] = assay: Growth inhibition
ABCB1 (MDR1) = assay: Growth inhibition; details: dog, 72 h
MDCKII-ABCC2 cells [9] = assay: Cellular efflux of Act D after 4 h uptake; assay type: in vitro ADME, canine
in vivo = assay type: in vivo, mice; details: for Cmax / Tmax / half-life: mouse, in vivo, iv
MDCKII-ABCB1 cells [10] = assay: Intracellular accumulation of Act D; assay type: in vitro ADME, canine
MDCKII-ABCC1 cells [11] = assay: Cellular efflux of Act D after 4 h uptake; assay type: in vitro ADME, canine; details: MDCKII-ABCC1, after 4 h with 0.1 μM Act D
MDCKII-ABCG2 cells [12] = assay: Growth inhibition; assay type: cell-based, canine; details: MDCKII-ABCG2, Act D alone or with KO143, p = 0.74
ABCG2 (BCRP) = assay: Growth inhibition; assay type: cell-based, canine; details: dog, MDCKII cells transfected with human ABCG2 (BCRP)
MDCKII-WT cells [13] = assay: Intracellular accumulation of Act D; assay type: in vitro ADME, canine; details: 0.01 μM Act D, 12 h
MDCKII-ABCG2 cells [14] = assay: Intracellular accumulation of Act D; assay type: in vitro ADME, canine
MDCKII-ABCB1 cells [15] = assay: Cellular efflux of Act D after 4 h uptake; assay type: in vitro ADME, canine; details: MDCKII-ABCB1, after 4 h with 0.1 μM Act D
MDCKII-ABCC2 cells [16] = assay: Growth inhibition; assay type: cell-based, canine; details: MDCKII-ABCC2, MK571 25 μM, p = 0.23
[17] = paediatric patient population; cited from earlier work
MDCKII-WT cells [18] = assay: Growth inhibition; assay type: cell-based, canine
[19] = Abcb1a/1b−/− knockout (parental strain FVB), 0.5 mg/kg
[20] = Abcc2−/− knockout (parental strain FVB), 0.5 mg/kg
[21] = Abcc2−/− mice, 0.5 mg/kg i.v., 0.5 mg/kg
[22] = WT mice, 0.5 mg/kg i.v., 0.5 mg/kg

Cc1c2oc3c(C)ccc(C(=O)N[C@@H]4C(=O)N[C@H](C(C)C)C(=O)N5CCC[C@H]5C(=O)N(C)CC(=O)N(C)[C@@H](C(C)C)C(=O)O[C@@H]4C)c3nc-2c(C(=O)N[C@@H]2C(=O)N[C@H](C(C)C)C(=O)N3CCC[C@H]3C(=O)N(C)CC(=O)N(C)[C@@H](C(C)C)C(=O)O[C@@H]2C)c(N)c1=O [Act D, actinomycin D] (I: T[dV]P[Sar][NMeV] / II: T[dV]P[Sar][NMeV]; ester I:1-I:C, II:1-II:C; linker I:N-II:N via Actinocin(9to1))
Act D concentration at which intracellular doxorubicin levels plateaued (MDCKII-WT cells [1]): 0.1 to 1 µM | Act D concentration required to maximally inhibit doxorubicin efflux (MDCKII-ABCB1 cells [2]): 1 to 25 µM | incidence of liver toxicities [3]: 1.7–13.5 % of cases | increase in sensitivity to Act D with MK571 (MDCKII-ABCC1 cells [4]): greater than 4 fold | increased accumulation with MK571 compared to absence of inhibitor (MDCKII-ABCC2 cells [5]; MDCKII-ABCC2, not statistically significant): 1.4 fold | lower accumulation of Act D compared to parental cell line (MDCKII-ABCC2 cells [5]; MDCKII-ABCC2 vs MDCKII-WT, 12 h): 3.5 fold | increased accumulation with MK571 compared to absence of inhibitor (MDCKII-ABCC1 cells [6]; MDCKII-ABCC1, not statistically significant): 1.2 fold | lower accumulation of Act D compared to parental cell line (MDCKII-ABCC1 cells [6]; MDCKII-ABCC1 vs MDCKII-WT, 12 h): 2.5 fold and 2.45 fold | higher intracellular Act D after 2 h (MDCKII-ABCG2 cells [7]): 1.5 fold | decrease in GI50 with verapamil (MDCKII-ABCB1 cells [8]; MDCKII-ABCB1, verapamil 1 μM, 72 h): 6 fold | difference in GI50 between MDCKII-WT and MDCKII-ABCB1 (MDCKII-ABCB1 cells [8]; MDCKII-ABCB1 less sensitive than parental): 59 fold | GI50 at 72 h (ABCB1 (MDR1); GI50, MDCKII-ABCB1, + verapamil (1 μM)): 129 nM | GI50 at 72 h (ABCB1 (MDR1); GI50, MDCKII-ABCB1, Act D alone): 745 nM | reduction in intracellular Act D over 2 h after drug removal (MDCKII-ABCC2 cells [9]; MDCKII-ABCC2, after 4 h with 0.1 μM Act D): 2.1 fold | reduction in intracellular Act D over 1 h after drug removal (MDCKII-ABCC2 cells [9]; MDCKII-ABCC2, compared to parental cell line): 1.8 fold | greater plasma AUC0–∞ in Abcb1a/1b−/− mice compared to WT (in vivo; 0.5 mg/kg i.v.): 1.9 fold | higher plasma AUC0–6 h in Abcb1a/1b−/− mice compared to WT (in vivo; 0.5 mg/kg i.v.): 1.6 fold | higher plasma Cmax at 15 min in Abcb1a/1b−/− mice compared to WT (in vivo; 0.5 mg/kg i.v.): 1.4 fold | higher plasma concentration at 30 min in Abcb1a/1b−/− mice compared to WT (in vivo; 0.5 mg/kg i.v.): 1.7 fold | longer elimination half-life (t1/2) in Abcb1a/1b−/− mice compared to WT (in vivo; 0.5 mg/kg i.v.): 1.5 fold | Cmax (in vivo; [19]): 96.7 ± 12 ng/mL | Tmax (in vivo; [19]): 0.25 h | half-life (in vivo; [19]): 2.78 h | plasma AUC0–∞ (in vivo; Abcb1a/1b−/− mice, 0.5 mg/kg i.v., 0.5 mg/kg): 322.6 ng·h/mL | Act D plasma concentration (in vivo; Abcb1a/1b−/− mice, 0.25 h, 0.5 mg/kg i.v.): 96.7 ± 12.0 µg/L | Act D plasma concentration (in vivo; Abcb1a/1b−/− mice, 0.5 h, 0.5 mg/kg i.v., 0.5 mg/kg): 71.6 µg/L and 71.6 ± 12.3 µg/L | Act D plasma concentration (in vivo; Abcb1a/1b−/− mice, 2 h, 0.5 mg/kg i.v.): 35.8 ± 2.01 µg/L | Act D plasma concentration (in vivo; Abcb1a/1b−/− mice, 6 h, 0.5 mg/kg i.v.): 20.1 ± 0.78 µg/L | half-life (in vivo; Abcc2−/− knockout (FVB background), 0.5 mg/kg): 2.46 h | Cmax (in vivo; [20]): 48 ± 11.1 ng/mL | Tmax (in vivo; [20]): 0.25 h | plasma AUC0–6 h (in vivo; [21]): 114.8 ng·h/mL | plasma AUC0–∞ (in vivo; [21]): 145.2 ng·h/mL | Act D plasma concentration (in vivo; Abcc2−/− mice, 0.25 h, 0.5 mg/kg i.v.): 48.0 ± 11.1 µg/L | Act D plasma concentration (in vivo; Abcc2−/− mice, 0.5 h, 0.5 mg/kg i.v.): 37.7 ± 6.07 µg/L | Act D plasma concentration (in vivo; Abcc2−/− mice, 2 h, 0.5 mg/kg i.v.): 16.3 ± 3.73 µg/L | Act D plasma concentration (in vivo; Abcc2−/− mice, 6 h, 0.5 mg/kg i.v.): 8.6 ± 0.96 µg/L | Cmax (in vivo; FVB (wild type), 0.5 mg/kg): 68.6 ± 15.6 ng/mL | Tmax (in vivo; FVB (wild type), 0.5 mg/kg): 0.25 h | half-life (in vivo; FVB (wild type), 0.5 mg/kg): 1.92 h | plasma AUC0–6 h (in vivo; [22]): 151.5 ng·h/mL | plasma AUC0–∞ (in vivo; [22]): 168.1 ng·h/mL | Act D plasma concentration (in vivo; WT mice, 0.25 h, 0.5 mg/kg i.v.): 68.6 ± 15.6 µg/L | Act D plasma concentration (in vivo; WT mice, 0.5 h, 0.5 mg/kg i.v., 0.5 mg/kg): 43.3 µg/L and 43.3 ± 7.68 µg/L | Act D plasma concentration (in vivo; WT mice, 2 h, 0.5 mg/kg i.v.): 25.8 ± 4.78 µg/L | Act D plasma concentration (in vivo; WT mice, 6 h, 0.5 mg/kg i.v.): 6.0 ± 0.65 µg/L | intracellular accumulation of Act D (MDCKII-ABCB1 cells [10]; MDCKII-ABCB1, 0.01 μM Act D, 12 h): 0.1 nM | increase in intracellular Act D with verapamil (MDCKII-ABCB1 cells [10]; MDCKII-ABCB1, 10 μM verapamil, 0.1 μM Act D, 4 h): 7.9 fold | lower accumulation of Act D compared to parental cell line (MDCKII-ABCB1 cells [10]; MDCKII-ABCB1 vs MDCKII-WT, 0.01 μM Act D, 12 h): 9.8 fold | reduction in intracellular Act D over 2 h after drug removal (MDCKII-ABCC1 cells [11]): 1.9 fold | difference in sensitivity vs parental cell line (MDCKII-ABCG2 cells [12]): No difference in sensitivity | GI50 at 72 h (ABCG2 (BCRP)): 14 nM | intracellular accumulation of Act D (MDCKII-WT cells [13]): 0.98 nM | Act D accumulation compared to WT cells (MDCKII-ABCG2 cells [14]; MDCKII-ABCG2): not different to WT cells | effect of co-incubation with KO143 on Act D accumulation (MDCKII-ABCG2 cells [14]; MDCKII-ABCG2, data not shown): no effect | reduction in intracellular Act D over 2 h after drug removal (MDCKII-ABCB1 cells [15]): 5.5 fold | effect of MK571 on sensitivity to Act D (MDCKII-ABCC2 cells [16]): no effect | range in AUC0–6 h between patients [17]: > 4 fold | increase in sensitivity to Act D with MK571 (MDCKII-WT cells [18]; MK571 25 μM): 3 fold | reduction in GI50 with verapamil (MDCKII-WT cells [18]; verapamil 1 μM, 72 h): 3 fold
